The source of these data is patent publication US20080194482A1, “Selective Apac2 Receptor Peptide Agonists” (priority 2005, published 2008).

Square brackets hold non-standard residues; d marks the D form. Peptide text beside a SMILES is read from it. * marks the point of attachment. Orn = NCCC[C@H](N)C(=O)O; Hexanoyl = CCCCCC(=O)*; Aib = CC(C)(N)C(=O)O

In data set [1] the target is T1, human VPAC1 (Homo sapiens, UniProt P32241).
T1 construct: expressed in transfected cells
T1 sequence (P32241 31-457): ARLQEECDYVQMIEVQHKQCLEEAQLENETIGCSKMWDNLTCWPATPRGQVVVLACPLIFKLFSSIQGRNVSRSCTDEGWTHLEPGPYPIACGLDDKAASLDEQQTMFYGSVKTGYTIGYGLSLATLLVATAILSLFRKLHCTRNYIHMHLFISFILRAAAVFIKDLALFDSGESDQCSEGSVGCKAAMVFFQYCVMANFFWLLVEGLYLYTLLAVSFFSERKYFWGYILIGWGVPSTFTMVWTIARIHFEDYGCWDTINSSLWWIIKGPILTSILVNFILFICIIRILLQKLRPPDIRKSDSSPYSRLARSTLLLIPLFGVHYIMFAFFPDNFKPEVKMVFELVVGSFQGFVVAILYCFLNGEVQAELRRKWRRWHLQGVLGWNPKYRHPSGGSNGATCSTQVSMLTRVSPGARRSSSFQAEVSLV
Kind of data set: Filter binding assay, 125I-labeled VIP tracer, VPAC1 membranes. The following applies: read-out: Human VPAC1 Receptor Binding (IC50; nM).
Experimental: (§1) For this assay, the solutions and equipment include:
(§2) Presoak solution: 0.5% Polyethyleneamine in Aqua dest
(§3) Buffer for flushing filter plates: 25 mM HEPES pH 7.4
(§4) Blocking buffer: 25 mM HEPES pH 7.4; 0.2% protease free BSA
(§5) Assay buffer: 25 mM HEPES pH 7.4; 0.5% protease free BSA
(§6) Dilution and assay plate: PS-Microplate, U form
(§7) Filtration Plate: Multiscreen FB Opaque Plate; 1.0 μM Type B Glasfiber filter
(§8) In order to prepare the filter plates, the presoak solution is aspirated by vacuum filtration. The plates are flushed twice with 200 μL flush buffer. 200 μL blocking buffer is added to the filter plate. The filter plate is then incubated with 200 μL presoak solution for 1 hour at room temperature.
(§9) The assay plate is filled with 25 μL assay buffer, 25 μL membranes (2.5 μg) suspended in assay buffer, 25 μL compound (agonist) in assay buffer, and 25 μL tracer (about 40000 cpm) in assay buffer. The filled plate is incubated for 1 hour with shaking.
(§10) The transfer from assay plate to filter plate is conducted. The blocking buffer is aspirated by vacuum filtration and washed two times with flush buffer. 90 μL is transferred from the assay plate to the filter plate. The 90 μL transferred from assay plate is aspirated and washed three times with 200 μL flush buffer. The plastic support is removed. It is dried for 1 hour at 60° C. 30 μL Microscint is added. The count is performed.

Data set [2] in a line: Rat serum stability (activity remaining, CHO-VPAC2 DiscoveRx read-out). Type of data set: in vitro ADME. The method, then: The rat serum is stored at 4° C. until use and is used within two weeks. […] The aliquot is stored with aprotinin at 4° C. The aliquot is stored without aprotinin at 37° C. The aliquots are incubated overnight. […] The plate(s) are washed with cells twice in incubation buffer. The plates are allowed to hold 50 μL incubation media per well for 15 minutes. 50 μL solution per well is transferred to the cells from the plate prepared with 11 serial 5× dilutions of peptide for the 4° C. and 37° C. aliquot for each peptide studied, using the maximal concentrations that are indicated by the primary screen, in duplicate. This step dilutes the peptide concentration by a factor of two. The cells are incubated at room temperature for 30 minutes. […] The cells are incubated on the shaker (300 rpm) for 1 hour. Normal procedure with the DiscoveRx kit is followed. cAMP standards are included in column 12. EC50 values are determined from the cAMP assay data.

For data set [3], the target named is T2, human PAC1 (Homo sapiens, UniProt P41586).
T2 construct: expressed in transfected cells
T2 sequence (P41586 21-468): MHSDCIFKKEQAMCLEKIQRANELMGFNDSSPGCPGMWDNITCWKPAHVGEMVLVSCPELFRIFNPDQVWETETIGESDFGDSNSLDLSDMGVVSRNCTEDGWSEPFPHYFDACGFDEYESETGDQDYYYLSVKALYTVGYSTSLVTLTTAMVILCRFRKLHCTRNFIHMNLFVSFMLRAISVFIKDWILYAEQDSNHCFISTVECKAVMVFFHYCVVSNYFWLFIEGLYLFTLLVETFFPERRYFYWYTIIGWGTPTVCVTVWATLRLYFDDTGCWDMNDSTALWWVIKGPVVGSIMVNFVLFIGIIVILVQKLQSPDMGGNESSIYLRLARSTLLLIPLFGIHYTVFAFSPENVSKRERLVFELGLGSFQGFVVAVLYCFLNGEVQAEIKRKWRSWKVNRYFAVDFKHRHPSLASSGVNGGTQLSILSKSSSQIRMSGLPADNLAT
As to the kind of experiment: Filter binding assay, 125I-labeled PACAP-27 tracer, PAC1 membranes. Conditions: read-out: Human PAC1 Receptor Binding (IC50; nM).
Experimental: as §1, §2, §3, §4, §5, §6, §7, §8, §9, §10

The IC50 is the concentration needed to halve the response being measured. In the case of `CCCCCC(=O)N[C@@H](Cc1c[nH]cn1)C(=O)N[C@@H](CO)C(=O)N[C@@H](CC(=O)O)C(=O)N[C@@H](C)C(=O)N[C@H](C(=O)N[C@@H](Cc1ccccc1)C(=O)N[C@H](C(=O)N[C@@H](CCC(=O)O)C(=O)N[C@@H](CCC(N)=O)C(=O)N[C@@H](Cc1ccc(OC)cc1)C(=O)N[C@H](C(=O)N[C@@H](CCCN)C(=O)N[C@@H](CC(C)C)C(=O)N[C@@H](CCCNC(=N)N)C(=O)NC(C)(C)C(=O)N[C@@H](CCC(N)=O)C(=O)N[C@@H](CC(C)C)C(=O)N[C@@H](C)C(=O)N[C@@H](C)C(=O)NC(C)(C)C(=O)N[C@@H](CCCN)C(=O)N[C@@H](Cc1ccc(OC)cc1)C(=O)N[C@@H](CC(C)C)C(=O)N[C@@H](CCC(N)=O)C(=O)N[C@@H](CO)C(=O)N[C@H](C(=O)N[C@@H](CCCN)C(=O)N[C@@H](CCCN)C(=O)NCC(=O)NCC(=O)N1CCC[C@H]1C(=O)N[C@@H](CO)C(=O)N[C@@H](CO)C(=O)NCC(=O)N[C@@H](C)C(=O)N1CCC[C@H]1C(=O)N1CCC[C@H]1C(=O)N1CCC[C@H]1C(=O)N[C@@H](CO)C(=O)O)[C@@H](C)CC)[C@@H](C)O)[C@@H](C)O)C(C)C` [Agonist P418] (Hexanoyl-HSDAVFTEQY(Me)T[Orn]LR[Aib]QLAA[Aib][Orn]Y(Me)LQSI[Orn][Orn]GGPSSGAPPPS-OH; C-terminus assumed), the results for the IC50 in data set [1] and in data set [3] were greater than 3000 nM and greater than 25000 nM, respectively. For the same compound, the “Rat Serum Stability (estimated purity in % after overnight incub.)” value in data set [2] is on record as 99.96%.
In the same order, the values of `CCCCCC(=O)N[C@@H](Cc1c[nH]cn1)C(=O)N[C@@H](CO)C(=O)N[C@@H](CC(=O)O)C(=O)N[C@@H](C)C(=O)N[C@H](C(=O)N[C@@H](Cc1ccccc1)C(=O)N[C@H](C(=O)N[C@@H](CC(=O)O)C(=O)N[C@@H](CC(N)=O)C(=O)N[C@@H](Cc1ccc(O)cc1)C(=O)N[C@H](C(=O)N[C@@H](CCC(N)=O)C(=O)N[C@@H](CC(C)C)C(=O)N[C@@H](CCCNC(=N)N)C(=O)NC(C)(C)C(=O)N[C@@H](CCC(N)=O)C(=O)N[C@H](C(=O)N[C@@H](C)C(=O)N[C@@H](C)C(=O)NC(C)(C)C(=O)N[C@@H](CCCCN)C(=O)N[C@@H](Cc1ccc(O)cc1)C(=O)N[C@@H](CC(C)C)C(=O)N[C@@H](CCC(N)=O)C(=O)N[C@@H](CO)C(=O)N[C@H](C(=O)N[C@@H](CCCN)C(=O)N[C@@H](CC(N)=O)C(=O)N[C@@H](CCCN)C(=O)NCC(=O)NCC(=O)N1CCC[C@H]1C(=O)N[C@@H](CO)C(=O)N[C@@H](CO)C(=O)NCC(=O)N[C@@H](C)C(=O)N1CCC[C@H]1C(=O)N1CCC[C@H]1C(=O)N1CCC[C@H]1C(=O)N[C@@H](CO)C(=O)O)[C@@H](C)CC)C(C)C)[C@@H](C)O)[C@@H](C)O)C(C)C` [Agonist P368] (Hexanoyl-HSDAVFTDNYTQLR[Aib]QVAA[Aib]KYLQSI[Orn]N[Orn]GGPSSGAPPPS-OH; C-terminus assumed) are greater than 3000 nM, greater than 25000 nM and 99.82%.
In the same order, the values of `CCCCCC(=O)N[C@@H](Cc1c[nH]cn1)C(=O)N[C@@H](CO)C(=O)N[C@@H](CCC(=O)O)C(=O)N[C@@H](C)C(=O)N[C@H](C(=O)N[C@@H](Cc1ccccc1)C(=O)N[C@H](C(=O)N[C@@H](CCC(=O)O)C(=O)N[C@@H](CC(N)=O)C(=O)N[C@@H](Cc1ccc(O)cc1)C(=O)N[C@H](C(=O)N[C@@H](CCCN)C(=O)N[C@@H](CC(C)C)C(=O)N[C@@H](CCCNC(=N)N)C(=O)NC(C)(C)C(=O)N[C@@H](CCC(N)=O)C(=O)N[C@H](C(=O)N[C@@H](C)C(=O)N[C@@H](C)C(=O)NC(C)(C)C(=O)N[C@@H](CCCCN)C(=O)N[C@@H](Cc1ccc(O)cc1)C(=O)N[C@@H](CC(C)C)C(=O)N[C@@H](CCC(N)=O)C(=O)N[C@@H](CO)C(=O)N[C@H](C(=O)N[C@@H](CCCN)C(=O)N[C@@H](CC(N)=O)C(=O)N[C@@H](CCCN)C(=O)NCC(=O)NCC(=O)N1CCC[C@H]1C(=O)N[C@@H](CO)C(=O)N[C@@H](CO)C(=O)NCC(=O)N[C@@H](C)C(=O)N1CCC[C@H]1C(=O)N1CCC[C@H]1C(=O)N1CCC[C@H]1C(=O)N[C@@H](CO)C(=O)O)[C@@H](C)CC)C(C)C)[C@@H](C)O)[C@@H](C)O)C(C)C` [Agonist P362] (Hexanoyl-HSEAVFTENYT[Orn]LR[Aib]QVAA[Aib]KYLQSI[Orn]N[Orn]GGPSSGAPPPS-OH; C-terminus assumed) are greater than 3000 nM, greater than 25000 nM and 82.77%.
The corresponding values for `CCCCCC(=O)N[C@@H](Cc1c[nH]cn1)C(=O)N[C@@H](CO)C(=O)N[C@@H](CC(=O)O)C(=O)N[C@@H](C)C(=O)N[C@H](C(=O)N[C@@H](Cc1ccccc1)C(=O)N[C@H](C(=O)N[C@@H](CC(=O)O)C(=O)N[C@@H](CC(N)=O)C(=O)N[C@@H](Cc1ccc(O)cc1)C(=O)N[C@H](C(=O)N[C@@H](Cc1ccccc1)C(=O)N[C@@H](CC(C)C)C(=O)N[C@@H](CCCNC(=N)N)C(=O)NC(C)(C)C(=O)N[C@@H](CCC(N)=O)C(=O)N[C@H](C(=O)N[C@@H](C)C(=O)N[C@@H](C)C(=O)NC(C)(C)C(=O)N[C@@H](CCCCN)C(=O)N[C@@H](Cc1ccc(O)cc1)C(=O)N[C@@H](CC(C)C)C(=O)N[C@@H](CCC(N)=O)C(=O)N[C@@H](CO)C(=O)N[C@H](C(=O)N[C@@H](CCCN)C(=O)N[C@@H](CC(N)=O)C(=O)N[C@@H](CCCN)C(=O)NCC(=O)NCC(=O)N1CCC[C@H]1C(=O)N[C@@H](CO)C(=O)N[C@@H](CO)C(=O)NCC(=O)N[C@@H](C)C(=O)N1CCC[C@H]1C(=O)N1CCC[C@H]1C(=O)N1CCC[C@H]1C(=O)N[C@@H](CO)C(=O)O)[C@@H](C)CC)C(C)C)[C@@H](C)O)[C@@H](C)O)C(C)C` [Agonist P369] (Hexanoyl-HSDAVFTDNYTFLR[Aib]QVAA[Aib]KYLQSI[Orn]N[Orn]GGPSSGAPPPS-OH; C-terminus assumed) are greater than 3000 nM, greater than 25000 nM and 133.76%.
As for `CCCCCC(=O)N[C@@H](Cc1c[nH]cn1)C(=O)N[C@@H](CO)C(=O)N[C@@H](CC(=O)O)C(=O)N[C@@H](C)C(=O)N[C@H](C(=O)N[C@@H](Cc1ccccc1)C(=O)N[C@H](C(=O)N[C@@H](CC(=O)O)C(=O)N[C@@H](CC(N)=O)C(=O)N[C@@H](Cc1ccc(O)cc1)C(=O)N[C@H](C(=O)N[C@@H](CCCN)C(=O)N[C@@H](CC(C)C)C(=O)N[C@@H](CCCNC(=N)N)C(=O)NC(C)(C)C(=O)N[C@@H](CCC(N)=O)C(=O)N[C@H](C(=O)N[C@@H](C)C(=O)N[C@@H](CO)C(=O)NC(C)(C)C(=O)N[C@@H](CCCCN)C(=O)N[C@@H](Cc1ccc(O)cc1)C(=O)N[C@@H](CC(C)C)C(=O)N[C@@H](CCC(N)=O)C(=O)N[C@@H](CO)C(=O)N[C@H](C(=O)N[C@@H](CCCN)C(=O)N[C@@H](CC(N)=O)C(=O)N[C@@H](CCCN)C(=O)NCC(=O)NCC(=O)N1CCC[C@H]1C(=O)N[C@@H](CO)C(=O)N[C@@H](CO)C(=O)NCC(=O)N[C@@H](C)C(=O)N1CCC[C@H]1C(=O)N1CCC[C@H]1C(=O)N1CCC[C@H]1C(=O)N[C@@H](CO)C(=O)O)[C@@H](C)CC)C(C)C)[C@@H](C)O)[C@@H](C)O)C(C)C` [Agonist P387] (Hexanoyl-HSDAVFTDNYT[Orn]LR[Aib]QVAS[Aib]KYLQSI[Orn]N[Orn]GGPSSGAPPPS-OH; C-terminus assumed), the IC50 was greater than 3000 nM in data set [1] and greater than 25000 nM in data set [3]. In addition, the “Rat Serum Stability (estimated purity in % after overnight incub.)” value in data set [2] is listed as 74.99%.
